What was measured:
RAW 264.7 cells [1] = assay: Observation of cell shape change of RAW 264.7 cells after PMA treatment in the sensor chip; format: cell-based, murine; conditions: 16 μM PMA added to culturing liquid; RAW 264.7 cells adhered after 24 hours culture; FIGS. 4-1 and 4-2
Experimental: (§1) After introducing the sensor chip into an autoclave, the sensor chip was autoclaved at a temperature of 120° C. for […]. Thereafter, RAW 264.7 cells as a murine macrophage cell line were inoculated into a cell culturing compartment containing the culturing liquid of the sterilized sensor chip, and then were cultured for 24 hours to adhere the cells to a surface of the culturing compartment. In this regard, Dulbecco's modified eagle medium (DMEM), 10% fetal bovine serum, and 5% penicillin streptomycin were added to the culturing liquid, and then culturing of the cells was carried out at 37° C., and under a 5% CO2 concentration condition.
(§2) After identifying that the cells were adhered to the surface of the culturing compartment, 16 μM of PMA was added to the culturing liquid to chemically activate the cells, and change in the cell shape was observed (FIGS. 4-1 and 4-2). In this regard, PMA used as the chemical stimulant acts as a strong tumor promoter and is a chemical that induces cell growth, differentiation, and immune response when the PMA is added to the culturing liquid. When the external stimulating substance such as the PMA is added to the culturing liquid, the immune cells recognize the external stimulating substance as an external stimulus such that the activation of the cells is induced.

RAW 264.7 cells [2] = assay: Cyclic voltammetry measurement of hydrogen peroxide secreted into the cell culturing liquid after PMA treatment (HRP carbon paste work electrode); format: cell-based, murine; conditions: 16 μM PMA; CV 0 V to −1 V, reduction current at −400 mV; calibration curve; FIG. 4-6
Experimental: as §1
as §2, with “When the external stimulating substance such as the PMA is added to the culturing liquid, the immune cells recognize the external stimulating substance as an external stimulus such that the activation of the cells is induced.” left out
For this purpose, a calibration curve (FIG. 4-5) was obtained based on the CV results measured while hydrogen peroxide having varying concentrations was added to the cell culturing liquid. […]

CCCCCCCCCCCCCC(=O)O[C@@H]1[C@@H](C)[C@@]2(O)[C@@H](C=C(CO)C[C@]3(O)C(=O)C(C)=C[C@@H]23)[C@@H]2C(C)(C)[C@]12OC(C)=O [PMA, phorbol 12-myristate 13-acetate]
change in the cell shape after the PMA treatment (RAW 264.7 cells [1]): cell shape changed into an atypical shape | concentration of hydrogen peroxide secreted from the cells over time after the PMA treatment (RAW 264.7 cells [2]): concentration of hydrogen peroxide secreted from the cells also increases
